Laboratory results from patent publication US12583841B2, “Tetrahydropyrrolocyclic compound and application thereof” (Breakthrough Pharmaceuticals Inc., priority 2021, dated 2026).

Tests used:
OX1R = molecular target: T1, OX1R (Homo sapiens, UniProt O43613); experiment: FLIPR intracellular calcium antagonism test, HEK293-OX1R cells; format: cell-based; settings: Orexin A at EC70, read-out: hOXIR IC50
T1 construct: expressed in transfected cells
T1 sequence (O43613 1-425): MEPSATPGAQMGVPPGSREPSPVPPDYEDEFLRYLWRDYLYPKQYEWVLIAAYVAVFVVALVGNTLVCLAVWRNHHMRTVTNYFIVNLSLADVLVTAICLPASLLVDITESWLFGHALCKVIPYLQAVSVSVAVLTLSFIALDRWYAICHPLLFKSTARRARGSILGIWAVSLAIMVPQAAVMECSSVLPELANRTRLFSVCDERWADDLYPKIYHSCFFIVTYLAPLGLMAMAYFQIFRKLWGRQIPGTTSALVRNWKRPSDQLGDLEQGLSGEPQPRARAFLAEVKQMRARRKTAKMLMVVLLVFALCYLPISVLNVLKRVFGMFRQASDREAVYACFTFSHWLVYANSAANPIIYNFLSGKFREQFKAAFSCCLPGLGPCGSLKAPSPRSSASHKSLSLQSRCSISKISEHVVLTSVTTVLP
Method: (§1) The change of intracellular calcium signal was detected by FLIPR, and the antagonism of the compounds on OX1R and OX2R receptors was evaluated by using IC50 value of the compounds as an index.
(§2) • Cell lines: Transfected HEK293-OX1R and HEK293-OX2R stable cell lines • HEK293-OX1R cell culture medium (DMEM, Invitrogen #11960-044, 10% serum Gibco #10099141, L-Glutamine 1×, Gibco #25030, sodium pyruvate 1×, Gibco #11360, Geneticin 300 μg/mL, Gibco #10131) • HEK293-OX2R cell culture medium (DMEM, Invitrogen #11960-044, 10% serum Gibco #10099141, L-Glutamine 1×, Gibco #25030, sodium pyruvate 1×, Gibco #11360, Geneticin 300 μg/mL, Gibco #10131, Blasticin 2 μg/mL, Invitrogen #R21001)
(§3) Experimental Steps and Methods: • a) Cell seeding (HEK293-OX1R and HEK293-OX2R cells) • 1) preheating the culture medium, trypsin and DPBS under water bath at 37° C.; pipetting and removing the medium of cell culture and washing same with 10 mL of DPBS; • 2) adding the preheated trypsin to a culture flask, rotating the culture flask so that the trypsin evenly covered the culture flask, and putting the culture flask in a 37° C., 5% CO2 incubator for digestion for 1-2 min; • 3) suspending the cells with 10-15 mL of medium for each T150 and centrifuging at 800 rpm for 5 min; resuspending the cells with 10 mL of medium, pipetting 1 mL of the cell suspension and counting with Vi-cell; • 4) diluting OX1R cells with medium to 5×10^5 cells/mL, and diluting OX2R cells with medium to 4×10^5 cells/mL, and adding the diluted cells to 384 plate (Greiner.781946) with a multi-channel pipette (50 μL/well, 25000 cells/well for OX1R cells, 20000 cells/well for OX2R cells); placing the cell plate in a 37° C., 5% CO2 incubator overnight. • b) Compound loading: • 1) diluting the compound to 20 mM with DMSO, 3-fold dilution, 8 gradients, duplicate wells, and adding same to a compound plate with an Echo liquid handler; then adding 20 μL of buffer to maintain the final concentration of DMSO of 0.1%. • c) FLIPR experiment: • 1) washing off the cell culture medium in the 384 plate with a vacuum pump, adding […] Direct fluorescent dye, incubating in 37° C., 5% CO2 incubator for 1 h, and balancing at room temperature for another 10 min. • 2) EC50 test: manually diluting Orexin A on ice, 3-fold dilution, 8 gradients, duplicate wells; preparing a DMSO plate and keep the DMSO concentration to be 0.5%; putting the cell plate, OrexinA plate, and DMSO plate in FLIPR respectively, and reading the fluorescence value. • 3) calculating the EC70 value based on the EC50 value of Orexin A; preparing a 5×EC70 solution, adding same to 384 compound plate with a multi-channel pipette, and storing on ice; • 4) putting the compound plate, 5×EC70 plate, cell plate, and FLIPR tip in sequence in FLIPR, running the program, and reading the fluorescence value. • d) Data analyzing: using Prism5.0 to analyze the data, and calculating the IC50 value of the compound.

OX2R = molecular target: T2, OX2R (Homo sapiens, UniProt O43614); experiment: FLIPR intracellular calcium antagonism test, HEK293-OX2R cells; format: cell-based; settings: Orexin A at EC70, read-out: hOX2R IC50
T2 construct: expressed in transfected cells
T2 sequence (O43614 1-444): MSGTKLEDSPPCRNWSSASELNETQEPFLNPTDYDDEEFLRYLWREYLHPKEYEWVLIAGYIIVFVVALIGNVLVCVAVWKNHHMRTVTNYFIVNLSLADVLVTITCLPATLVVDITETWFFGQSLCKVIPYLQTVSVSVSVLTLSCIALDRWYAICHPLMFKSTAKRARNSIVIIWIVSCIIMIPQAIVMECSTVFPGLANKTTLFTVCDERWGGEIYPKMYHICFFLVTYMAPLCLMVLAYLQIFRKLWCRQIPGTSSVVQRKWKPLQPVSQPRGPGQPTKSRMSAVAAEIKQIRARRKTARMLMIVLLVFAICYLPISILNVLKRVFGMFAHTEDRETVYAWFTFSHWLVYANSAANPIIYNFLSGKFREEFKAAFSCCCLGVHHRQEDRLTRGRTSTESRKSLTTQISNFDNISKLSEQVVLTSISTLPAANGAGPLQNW
Method: as §1, §2, §3

## COc1ccc2nc([C@@H]3[C@H]4C[C@H]4CN3C(=O)c3ccccc3-n3nccn3)[nH]c2c1 [Compound 1]
OX1R
  IC50: > 10000 nM
OX2R
  IC50: 25 nM

## COc1ccc2nc([C@@H]3C[C@H]4C[C@H]4N3C(=O)c3ccccc3-n3nccn3)[nH]c2c1 [Compound 2]
OX1R
  IC50: > 10000 nM
OX2R
  IC50: 72 nM

## COc1ccc(-n2nccn2)c(C(=O)N2C[C@@H]3C[C@@H]3[C@H]2c2nc3ccc(OC)cc3[nH]2)c1 [Compound 4]
OX1R
  IC50: 462 nM
OX2R
  IC50: 64 nM

## COc1ccc2nc([C@@H]3[C@H]4C[C@H]4CN3C(=O)c3cc(C)ccc3-n3nccn3)[nH]c2c1 [Compound 5]
OX1R
  IC50: 337 nM
OX2R
  IC50: 96 nM

## COc1ccc2nc([C@@H]3[C@H]4C[C@H]4CN3C(=O)c3c(F)cccc3-n3nccn3)[nH]c2c1 [Compound 6]
OX1R
  IC50: 1420 nM
OX2R
  IC50: 299 nM

## COc1ccc2nc([C@@H]3C[C@H]4C[C@H]4N3C(=O)c3cc(C)ccc3-n3nccn3)[nH]c2c1 [Compound 7]
OX1R
  IC50: 877 nM
OX2R
  IC50: 24 nM

## COc1ccc2nc([C@@H]3C[C@H]4C[C@H]4N3C(=O)c3ccc(F)cc3-n3nccn3)[nH]c2c1 [Compound 9]
OX1R
  IC50: 3170 nM
OX2R
  IC50: 42 nM

## COc1ccc2[nH]c([C@@H]3C[C@H]4C[C@H]4N3C(=O)c3ccc(C)cc3-n3nccn3)nc2c1 [Compound 10]
OX1R
  IC50: 710 nM
OX2R
  IC50: 17 nM

## COc1ccc2[nH]c([C@@H]3C[C@H]4C[C@H]4N3C(=O)c3cc(F)ccc3-n3nccn3)nc2c1 [Compound 11]
OX1R
  IC50: 3600 nM
OX2R
  IC50: 33 nM

## COc1ccc2[nH]c([C@@H]3C[C@H]4C[C@H]4N3C(=O)c3c(F)cccc3-n3nccn3)nc2c1 [Compound 12]
OX1R
  IC50: 1280 nM
OX2R
  IC50: 81 nM

## COc1ccc2[nH]c([C@@H]3C[C@H]4C[C@H]4N3C(=O)c3cc(C)ccc3-c3ncccn3)nc2c1 [Compound 13]
OX1R
  IC50: 2440 nM
OX2R
  IC50: 60 nM

## COc1ccc2[nH]c([C@@H]3C[C@H]4C[C@H]4N3C(=O)c3cc(Cl)ccc3-n3nccn3)nc2c1 [Compound 14]
OX1R
  IC50: 1040 nM
OX2R
  IC50: 30 nM
